Data reported in publication PMC12136037, “Type II kinase inhibitors that target Parkinson’s disease–associated LRRK2” (Science Advances, 2025).

Tests used:
Assay in all cases: DSF 100 kinase selectivity screen;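 further: compound tested at 20 µM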
Format in all cases: binding
[1] = molecular target: T1, ~100 representative kinases (Homo sapiens, UniProt Q13043); conditions: Protein STK4; DSF; average of three replicates
T1 construct: Recombinant protein kinase domains with a concentration of 2 μM
T1 sequence (Q13043 1-487): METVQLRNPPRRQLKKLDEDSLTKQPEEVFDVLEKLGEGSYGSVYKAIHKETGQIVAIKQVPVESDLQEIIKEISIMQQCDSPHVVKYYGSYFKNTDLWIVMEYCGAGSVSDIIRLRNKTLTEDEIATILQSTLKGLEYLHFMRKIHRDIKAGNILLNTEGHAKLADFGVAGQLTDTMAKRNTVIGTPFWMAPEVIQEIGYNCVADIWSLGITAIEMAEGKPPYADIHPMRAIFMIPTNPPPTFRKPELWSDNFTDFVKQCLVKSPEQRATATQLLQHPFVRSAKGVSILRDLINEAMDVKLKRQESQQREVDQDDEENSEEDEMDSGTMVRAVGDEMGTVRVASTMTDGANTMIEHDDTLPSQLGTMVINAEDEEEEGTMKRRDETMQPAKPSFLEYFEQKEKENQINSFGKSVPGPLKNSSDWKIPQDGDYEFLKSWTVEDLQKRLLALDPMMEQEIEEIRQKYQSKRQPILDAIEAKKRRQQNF
Summary of the method: (§1)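 Each kinase domain, at 2 μM, is mixed with 20 μM test compound and SYPRO Orange in Hepes (20 mM, pH 7.5) with 500 mM NaCl. Temperature is then raised at 3°C/min and fluorescence-monitored unfolding yields the melting temperature change, ΔTm in degrees Celsius.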

[2] = molecular target: T2, ~100 representative kinases (Homo sapiens, UniProt Q14680); conditions: protein MELK; average of three replicates
T2 construct: Recombinant protein kinase domains with a concentration of 2 μM
T2 sequence (Q14680 whole entry, the tested form may be a part): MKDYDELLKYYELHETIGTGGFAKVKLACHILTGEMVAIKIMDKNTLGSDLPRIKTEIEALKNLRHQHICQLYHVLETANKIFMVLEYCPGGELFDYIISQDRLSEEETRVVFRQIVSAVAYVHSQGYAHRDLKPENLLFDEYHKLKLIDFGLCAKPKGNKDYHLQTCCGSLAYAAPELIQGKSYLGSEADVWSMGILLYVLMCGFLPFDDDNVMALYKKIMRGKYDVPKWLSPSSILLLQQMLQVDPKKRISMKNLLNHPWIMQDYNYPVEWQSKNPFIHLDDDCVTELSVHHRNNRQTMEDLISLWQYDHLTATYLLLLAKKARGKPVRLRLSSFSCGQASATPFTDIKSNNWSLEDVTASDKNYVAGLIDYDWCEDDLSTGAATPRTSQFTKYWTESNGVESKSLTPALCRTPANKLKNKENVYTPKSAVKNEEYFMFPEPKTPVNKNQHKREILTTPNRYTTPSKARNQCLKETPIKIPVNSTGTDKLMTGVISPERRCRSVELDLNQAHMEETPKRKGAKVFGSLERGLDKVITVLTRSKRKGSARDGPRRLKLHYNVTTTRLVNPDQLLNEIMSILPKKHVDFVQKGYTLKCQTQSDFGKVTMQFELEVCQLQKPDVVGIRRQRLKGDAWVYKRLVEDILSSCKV
Summary of the method: as §1

[3] = molecular target: T3, ~100 representative kinases (Homo sapiens, UniProt O14965); conditions: Protein STK6; DSF; average of three replicates
T3 construct: Recombinant protein kinase domains with a concentration of 2 μM
T3 sequence (O14965 1-403): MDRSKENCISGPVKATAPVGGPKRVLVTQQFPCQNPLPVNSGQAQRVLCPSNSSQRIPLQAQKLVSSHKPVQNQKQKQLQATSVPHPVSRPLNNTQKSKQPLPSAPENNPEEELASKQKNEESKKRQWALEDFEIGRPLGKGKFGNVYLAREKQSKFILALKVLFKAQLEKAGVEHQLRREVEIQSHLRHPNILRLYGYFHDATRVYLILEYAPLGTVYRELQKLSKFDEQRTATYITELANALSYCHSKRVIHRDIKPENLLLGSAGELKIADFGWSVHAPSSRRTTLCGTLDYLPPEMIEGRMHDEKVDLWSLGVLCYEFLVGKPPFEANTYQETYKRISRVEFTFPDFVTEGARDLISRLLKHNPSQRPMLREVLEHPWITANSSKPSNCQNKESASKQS
Summary of the method: as §1

[4] = molecular target: T4, ~100 representative kinases (Homo sapiens, UniProt P00519); conditions: Protein ABL1; average of three replicates
T4 construct: Recombinant protein kinase domains with a concentration of 2 μM
T4 sequence (P00519 whole entry, the tested form may be a part): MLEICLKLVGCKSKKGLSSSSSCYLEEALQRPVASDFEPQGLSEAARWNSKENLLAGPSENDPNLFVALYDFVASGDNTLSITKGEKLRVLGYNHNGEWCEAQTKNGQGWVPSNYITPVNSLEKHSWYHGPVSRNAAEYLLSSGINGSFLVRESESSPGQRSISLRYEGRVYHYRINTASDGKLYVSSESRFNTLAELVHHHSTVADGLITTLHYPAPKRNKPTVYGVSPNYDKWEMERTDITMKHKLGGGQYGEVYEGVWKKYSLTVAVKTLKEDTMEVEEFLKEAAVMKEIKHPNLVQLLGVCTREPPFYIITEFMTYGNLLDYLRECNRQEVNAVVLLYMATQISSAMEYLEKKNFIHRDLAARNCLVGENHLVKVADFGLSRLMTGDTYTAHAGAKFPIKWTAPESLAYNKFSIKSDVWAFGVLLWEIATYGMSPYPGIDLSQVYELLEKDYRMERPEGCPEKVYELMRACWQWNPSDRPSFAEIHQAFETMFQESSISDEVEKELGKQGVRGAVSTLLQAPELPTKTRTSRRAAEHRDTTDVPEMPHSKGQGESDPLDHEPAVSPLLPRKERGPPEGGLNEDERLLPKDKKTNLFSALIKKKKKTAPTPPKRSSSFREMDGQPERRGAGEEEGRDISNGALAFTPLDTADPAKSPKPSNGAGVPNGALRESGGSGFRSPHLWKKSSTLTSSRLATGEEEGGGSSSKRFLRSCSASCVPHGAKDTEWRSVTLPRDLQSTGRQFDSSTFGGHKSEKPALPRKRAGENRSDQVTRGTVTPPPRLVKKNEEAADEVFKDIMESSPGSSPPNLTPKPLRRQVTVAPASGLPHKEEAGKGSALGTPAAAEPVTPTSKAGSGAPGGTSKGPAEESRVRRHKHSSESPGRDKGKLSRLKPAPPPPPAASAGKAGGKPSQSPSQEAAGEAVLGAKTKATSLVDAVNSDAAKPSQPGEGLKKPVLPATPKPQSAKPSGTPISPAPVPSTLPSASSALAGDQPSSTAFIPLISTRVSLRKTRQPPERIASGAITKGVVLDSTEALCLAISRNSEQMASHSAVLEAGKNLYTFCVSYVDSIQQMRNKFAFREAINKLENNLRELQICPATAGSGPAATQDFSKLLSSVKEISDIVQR
Summary of the method: as §1

[5] = molecular target: T5, ~100 representative kinases (Homo sapiens, UniProt Q12866); conditions: protein MERTK; average of three replicates
T5 construct: Recombinant protein kinase domains with a concentration of 2 μM
T5 sequence (Q12866 21-999): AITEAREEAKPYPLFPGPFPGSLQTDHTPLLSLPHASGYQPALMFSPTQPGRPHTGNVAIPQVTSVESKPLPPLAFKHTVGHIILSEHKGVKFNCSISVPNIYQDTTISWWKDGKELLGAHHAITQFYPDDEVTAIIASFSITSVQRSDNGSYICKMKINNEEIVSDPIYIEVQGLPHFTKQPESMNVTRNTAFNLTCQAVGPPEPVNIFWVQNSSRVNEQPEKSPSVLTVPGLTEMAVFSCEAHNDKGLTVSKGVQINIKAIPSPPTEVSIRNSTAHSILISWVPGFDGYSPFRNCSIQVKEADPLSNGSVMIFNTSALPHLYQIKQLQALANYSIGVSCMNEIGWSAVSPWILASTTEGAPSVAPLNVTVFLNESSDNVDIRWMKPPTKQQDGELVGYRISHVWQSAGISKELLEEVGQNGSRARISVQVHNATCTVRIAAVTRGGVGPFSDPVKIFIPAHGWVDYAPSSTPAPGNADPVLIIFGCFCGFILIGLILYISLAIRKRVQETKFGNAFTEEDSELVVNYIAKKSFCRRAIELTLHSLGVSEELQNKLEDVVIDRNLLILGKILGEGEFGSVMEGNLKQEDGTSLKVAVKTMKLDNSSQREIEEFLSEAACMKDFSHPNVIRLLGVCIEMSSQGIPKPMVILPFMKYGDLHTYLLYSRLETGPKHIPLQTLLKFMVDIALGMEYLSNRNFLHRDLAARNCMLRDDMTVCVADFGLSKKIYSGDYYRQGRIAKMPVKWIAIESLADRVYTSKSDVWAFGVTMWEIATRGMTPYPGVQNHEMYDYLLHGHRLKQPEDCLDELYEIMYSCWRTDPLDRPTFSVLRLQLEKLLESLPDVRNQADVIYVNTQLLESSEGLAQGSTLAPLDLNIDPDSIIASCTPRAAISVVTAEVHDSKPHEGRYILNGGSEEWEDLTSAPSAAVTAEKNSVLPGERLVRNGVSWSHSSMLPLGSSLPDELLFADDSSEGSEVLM
Summary of the method: as §1

[6] = molecular target: T6, ~100 representative kinases (Homo sapiens, UniProt Q9H2X6); conditions: protein HIPK2; average of three replicates
T6 construct: Recombinant protein kinase domains with a concentration of 2 μM
T6 sequence (Q9H2X6 whole entry, the tested form may be a part): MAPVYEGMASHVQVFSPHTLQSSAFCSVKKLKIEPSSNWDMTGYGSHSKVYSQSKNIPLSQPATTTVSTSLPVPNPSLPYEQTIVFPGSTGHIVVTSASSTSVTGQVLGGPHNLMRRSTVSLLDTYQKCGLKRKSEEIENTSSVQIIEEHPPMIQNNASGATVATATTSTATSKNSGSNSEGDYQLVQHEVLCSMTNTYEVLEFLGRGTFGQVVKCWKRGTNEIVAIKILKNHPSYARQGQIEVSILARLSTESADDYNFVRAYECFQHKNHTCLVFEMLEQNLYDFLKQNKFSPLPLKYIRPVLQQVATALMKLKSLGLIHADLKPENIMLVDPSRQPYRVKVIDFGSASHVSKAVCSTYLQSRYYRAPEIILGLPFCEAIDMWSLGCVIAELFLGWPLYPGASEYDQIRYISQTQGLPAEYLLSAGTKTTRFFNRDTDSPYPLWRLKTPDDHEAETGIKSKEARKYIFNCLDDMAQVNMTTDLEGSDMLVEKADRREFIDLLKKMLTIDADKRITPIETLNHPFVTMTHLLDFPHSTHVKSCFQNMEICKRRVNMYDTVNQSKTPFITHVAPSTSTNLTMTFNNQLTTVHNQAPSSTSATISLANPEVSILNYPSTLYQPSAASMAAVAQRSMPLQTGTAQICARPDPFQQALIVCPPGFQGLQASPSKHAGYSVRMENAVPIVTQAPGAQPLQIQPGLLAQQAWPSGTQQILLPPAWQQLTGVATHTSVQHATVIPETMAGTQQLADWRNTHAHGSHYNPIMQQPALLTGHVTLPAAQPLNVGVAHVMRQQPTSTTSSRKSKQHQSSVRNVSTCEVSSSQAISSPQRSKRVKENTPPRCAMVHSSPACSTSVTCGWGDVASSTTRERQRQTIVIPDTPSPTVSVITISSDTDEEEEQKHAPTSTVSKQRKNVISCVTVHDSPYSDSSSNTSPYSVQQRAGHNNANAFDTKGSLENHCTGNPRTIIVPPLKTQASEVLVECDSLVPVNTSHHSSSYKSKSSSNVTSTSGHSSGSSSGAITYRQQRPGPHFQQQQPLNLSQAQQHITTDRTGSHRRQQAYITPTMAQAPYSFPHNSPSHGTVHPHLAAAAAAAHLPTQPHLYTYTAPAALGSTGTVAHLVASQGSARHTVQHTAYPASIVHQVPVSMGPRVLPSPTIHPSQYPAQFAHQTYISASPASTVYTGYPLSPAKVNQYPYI
Summary of the method: as §1

[7] = molecular target: T7, ~100 representative kinases (Homo sapiens, UniProt Q9Y2H1); conditions: Protein STK38L; DSF; average of three replicates
T7 construct: Recombinant protein kinase domains with a concentration of 2 μM
T7 sequence (Q9Y2H1 whole entry, the tested form may be a part): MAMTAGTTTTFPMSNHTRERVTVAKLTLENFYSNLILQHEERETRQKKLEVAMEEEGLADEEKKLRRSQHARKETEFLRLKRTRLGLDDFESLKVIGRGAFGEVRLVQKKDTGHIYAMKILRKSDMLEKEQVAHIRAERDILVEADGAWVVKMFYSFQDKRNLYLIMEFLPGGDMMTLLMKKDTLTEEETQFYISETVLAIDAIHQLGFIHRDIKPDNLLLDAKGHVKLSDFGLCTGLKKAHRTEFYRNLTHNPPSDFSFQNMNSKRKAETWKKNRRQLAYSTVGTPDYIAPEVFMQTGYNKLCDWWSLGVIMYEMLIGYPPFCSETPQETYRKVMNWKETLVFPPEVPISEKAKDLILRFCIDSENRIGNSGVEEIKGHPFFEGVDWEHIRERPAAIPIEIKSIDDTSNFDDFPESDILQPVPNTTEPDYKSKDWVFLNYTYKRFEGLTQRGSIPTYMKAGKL
Summary of the method: as §1

[8] = molecular target: T8, ~100 representative kinases (Homo sapiens, UniProt Q9H4A3); conditions: Protein WNK1; DSF; average of three replicates
T8 construct: Recombinant protein kinase domains with a concentration of 2 μM
Summary of the method: as §1

CCSc1nc(NC)c2c(-c3cccc(NC(=O)Nc4cc(C(C)(C)C)nn4-c4ccc(C)cc4)c3)c[nH]c2n1 [Compound 32]
dTm [1]: 0.80 K | dTm [2]: 1.19 K | dTm [3]: 0.53 K | dTm [4]: 2.07 K | dTm [5]: 0.0365 K | dTm [6]: 0.31 K | dTm [7]: -0.75 K | dTm [8]: 0.83 K
